{"source": "patent US7666677B2", "about": "“Production of stilbenes in plant hairy root cultures” (priority 2006, dated 2010)", "key": {"[1]": {"tested_on": "hairy root cultures of peanut cv. Andru II", "experiment": "Elicitation of peanut hairy root cultures, TLC/HPTLC of ethyl acetate extracts of the medium", "assay_type": "cell-based, Arachis hypogaea", "details": "for fluorescent compounds induced in culture medium (TLC, UV 365 nm): all cv. Andru II hairy root lines tested, 12-day cultures, 600 μM copper sulfate or 10.2 mM sodium acetate; for fluorescent compounds induced in culture medium (TLC, UV 365 nm) / fluorescent products induced in culture medium (TLC): 24 hours; for fluorescent products induced in culture medium (TLC): line 2, 12-day culture, sodium acetate 10.2 mM, chitosan 10 mg/L, copper sulfate 600 μM, laminarin 1 mg/ml, cellulase 1 or 10 μg/ml; for color change of the root tissue and medium: lines 2, 3, 5 and 6 of cv. Andru II, elicitors applied 24 hours", "experimental": "Establishment of hairy root cultures. Seeds of peanuts (Arachis hypogaea) cvs. Andru II and Hull (kindly provided by Dr. Daniel Gorbet, University of Florida) were surface sterilized as follows. Seeds were presoaked for 2 minutes in sterile water containing 0.003% Ivory™ detergent; immersed for 15 minutes in sterilization solution (50% Clorox™, 0.003% Ivory™ detergent) and rinsed in sterile water. To minimize Chlorox™ damage to the embryo, the test was aseptically removed and seeds were further rinsed in two changes of sterile water over a 15 minute period. Disinfected seeds were placed individually on plates containing B5 medium to allow emergence of the radicle and to screen for viable healthy seedlings. Germinated seedlings were transferred to Magenta™ boxes containing B5 medium and allowed to grow in continuous light at 28° C. for 15 to 21 days. Explants used for hairy root production were harvested following expansion of two true leaves.\nCotyledon, hypocotyl, leaf blade, stem and petiole explants were evaluated. Whole, intact plantlets were also tested. […] Intact seedlings and isolated explants were then evaluated for response to Agrobacterium infection. Three strains of Agrobacterium were tested: A. rhizogenes ATCC 15834, A. rhizogenes R1000 and A. tumefaciens EHA105 containing pRYG (containing rolA, rolB and rolC genes, Komarnytsky et al., 2004) plasmid. The latter plasmid was kindly provided by Dr. Ilya Raskin (Rutgers University, New Jersey) and mobilized into A. tumefaciens by freeze-thaw method (Holsters et al., 1978). Intact seedlings were inoculated with agrobacteria at the stem, petiole, or cotyledonary node. All other isolated explants were inoculated via epidermal incisions as described before (Medina-Bolivar et al., 2003; Medina-Bolivar and Cramer, 2004). Inoculated intact seedlings and explants were maintained in B5 medium plates under constant light at 28° C. Hairy roots developed at the inoculation site were harvested and transferred to B5 medium plates containing 600 mg/l cefotaxime, and maintained at 28° C. under continuous darkness. Roots were subcultured twice in this medium prior to transfer to antibiotic-free medium. Liquid hairy root cultures were established by inoculating ten 1-cm root tips into 250 ml flasks containing 50 ml of B5 medium. Roots were subcultured every 2 weeks and maintained on an orbital shaker at 90 rpm, 28° C. and continuous darkness.\n(§1) Elicitation of hairy root cultures. […] All elicitors were dissolved in water and filter sterilized, except for chitosan which was dissolved in 1 M acetic acid. Following elicitation, all media was collected and frozen at −20° C. All root tissue was collected, fresh weight recorded and roots then rapidly frozen in liquid nitrogen prior to storage at −80° C. Controls included hairy root cultures incubated 24 hours with equivalent volumes of water or acetic acid as well as non-elicited media samples collected from the 12-day hairy root cultures prior to initiating the elicitation procedure. […] Media and root tissue were collected, processed and stored as outlined above.\n(§2) Extraction of resveratrol from culture medium. Media samples were thawed (50 ml) and partitioned with 30 ml ethyl acetate in a separatory funnel. The organic phase was recovered and dried to completeness under nitrogen stream using a RapidVap N2 evaporation system (Labconco) at 40° C. and 40% rotor speed. These dried samples were resuspended in 50 μl of ethyl acetate for further analysis.\nQualitative TLC analysis. Aliquots of the extracts and pure, authentic standards of trans-resveratrol (Sigma Co, St. Louis, Mo.), polydatin—same chemical as piceid—(ChromaDex, Santa Ana, Calif.), pterostilbene (Sigma) and piceatannol (Sigma) were spotted on a 20×20 cm silica gel 60 CF254 TLC plates (Merck) or a 10×10 silica gel 60 CF254 HPTLC plates (Merck)."}, "[2]": {"experiment": "Solubility of resveratrol in organic solvents", "assay_type": "physicochemical", "from_the_text": "Qualitative analyses of elicited peanut hairy root cultures. In an effort to rapidly assess the various hairy root lines for resveratrol production and secretion into the culture medium, we adapted a thin layer chromatographic method (TLC) that leverages the fluorescent nature of resveratrol at defined excitation wavelengths (Nepote et al., 2004). In a preliminary experiment, the culture medium was lyophilized to completeness and the dried medium was resuspended in methanol. This extract produced a very viscous solution which was difficult to resolve by TLC. In addition, the high content of carbohydrates in this sample appeared to bind the phenolic compounds (i.e. resveratrol). In an effort to overcome these issues, we optimized the purification of resveratrol in the culture medium by determining the solubility of resveratrol in various organic solvents. […] Initial analyses of the ethyl acetate extracts of hairy root media were compared by TLC to pure authentic references standards of trans-resveratrol and piceid. […] Andru II hairy root lines tested. The strongest fluorescent chemical was detected in the medium of sodium acetate-elicited hairy roots and generated an Rf of 0.83 corresponding to that of authentic trans-resveratrol. […]"}, "[3]": {"tested_on": "peanut hairy roots derived from the Hull cultivar", "details": "10.2 mM sodium acetate, 24 hours, medium extract", "experimental": "Using the materials and methods outlined above, resveratrol and resveratrol derivatives were elicited in the peanut hairy roots derived from the Hull cultivar. […] Control roots were not elicited. Elicited hairy root of peanut cv. Andru II (line pRYG-J) and cv. Hull s were cultured in B5 medium. […] Analysis was done under UV light (254 and 365 nm)."}, "[4]": {"tested_on": "hairy root cultures of peanut, line 2", "experimental": "as §1, §2\nQuantitative analysis of resveratrol and pterostilbene by GC-MS. Dried medium or root tissue extracts (0.1 mg) were derivatized with 500 μL of a mixture of bis (trimethylsilyl)trifluoroacetamide:dimethyl formamide (1:1), heated at 70° C. for 40 min. After cooling to room temperature, samples were analyzed by gas chromatography/mass spectrometry (GC-MS) on a JEOL GCMate II system (JEOL USA, Inc., USA). […] The GC capillary column used was DB-5 (0.25 mm i.d., 0.25 […], 30 m length; Agilent Technologies, USA). The carrier gas was ultra high purity helium (nexAir, USA), 1 mL/min flow rate. The inlet (splitless), GC interface, and ion chamber temperatures were 250° C., 250° C., and 230° C., respectively. The injection volume was 2 μL.\nQuantitative analysis of resveratrol and pterostilbene by GC-MS. […] Cis- and trans-resveratrol were monitored for m/z 444 (and 429, 207, 147 as qualifier ions). Cis- and trans-pterostilbene were monitored for m/z 328 (and 313, 296, 156 as qualifier ions). Quantitation was performed using external standards of a commercial sample of trans-resveratrol (Sigma) and a synthetic sample of trans-pterostilbene (synthesized from methylation of resveratrol). The cis isomers were obtained by UV-irradiation (λ 306 nm) of an ethanolic solution the trans isomers (1 mg/mL) for 24 hours.\nLaboratory recovery of stilbenes. […] Therefore we have calculated resveratrol recoveries based on the dry weight (DW) of the ethyl acetate extract of the culture media."}, "[5]": {"tested_on": "hairy root cultures of N. benthamiana", "quoted_text": "Seeds of Nicotiana benthamiana were surface sterilized and germinated on MS semi-solid medium. Axillary nodes were harvested from the axenic seedlings and used to establish plantlets. The latter were then micropropagated in MS medium and leaves from these plantlets were used as explants for Agrobacterium rhizogenes inoculations. Leaves were harvested from 2-3 week old plantlets and placed on B5 medium. The leaves were inoculated in the midrib with A. rhizogenes ATCC 15834. Two to 3 weeks after inoculation hairy roots initiated at the inoculation site. The roots were then transferred to B5 medium with cefotaxime to eliminate agrobacteria. After several subcultures in this medium, the roots were transferred to antibiotic-free B5 medium. Confirmation of transformation with A. rhizogenes was done by PCR. […]\nTo test for elicitation of stilbenes (pinosylvin, resveratrol and their derivatives), hairy root cultures of N. benthamiana lines 3NB, 4NB, 5NB and 6NB were grown for either 2 or 3 weeks as described above. […] Stilbenes were detected with a coupled diode away and fluorescence (excitation 330 nm; emission 374 nm) detector.\nFurther analyses were conducted by reverse phase HPLC. […] Stilbenes were detected with coupled diode array and fluorescence (excitation 330 nm; emission 374 nm) detectors. […] These compounds were further analyzed by HPLC-ESI-mass spectrometry."}, "[6]": {"tested_on": "hairy roots of muscadine grape", "details": "10.2 mM sodium acetate, 24 hours, medium extract", "experimental": "PCR analyses of hairy roots of muscadine grape (Vitis rotundifolia) cvs. Roots were analyzed for the presence of rol C and aux 2 genes. Hairy roots were cultured in B5 medium. […] Analysis was done under UV light (365 nm)."}, "[7]": {"details": "line 2, 15-day culture, 48 hours after elicitation"}}, "note": "Where “and” joins values, the source holds several entries; their conditions need not be identical. Identical values can stand only once.", "data": [{"compound": "O=S(=O)([O-])[O-].[Cu+2]", "note": "[copper sulfate]", "values": [{"measurement": "fluorescent compounds induced in culture medium (TLC, UV 365 nm)", "setting": "[1]", "result": "induced production of blue fluorescent compounds"}, {"measurement": "fluorescent products induced in culture medium (TLC)", "setting": "[1]", "result": "induced a fluorescent chemical of Rf 0.73"}, {"measurement": "color change of the root tissue and medium", "setting": "[1]", "result": "induced the browning on the tissue and of the medium"}]}, {"compound": "Oc1ccc(/C=C/c2cc(O)cc(O)c2)cc1", "note": "[resveratrol, trans-3,4′,5-trihydroxystilbene]", "values": [{"measurement": "solubility of resveratrol in ethyl acetate", "setting": "[2]", "result": "good solubility"}]}, {"compound": "CC(=O)[O-].[Na+]", "note": "[sodium acetate]", "values": [{"measurement": "production of resveratrol and derivatives (HPTLC)", "setting": "[3]", "result": "induced the production of resveratrol and derivatives"}, {"measurement": "increase of resveratrol above non-elicited culture extracts", "setting": "[4]; culture medium extracts", "result": "~60", "unit": "fold"}, {"measurement": "cis-resveratrol levels in elicited cultures, root tissue (average)", "setting": "[4]; elicited cultures", "result": 10, "unit": "ng/mg root tissue extract"}, {"measurement": "trans-resveratrol remaining in the root tissue", "setting": "[4]; elicited cultures", "result": "0.2-1.1 μg/mg extract DW"}, {"measurement": "trans-Resveratrol, Medium", "setting": "[4]; elicited cultures, ethyl acetate extract of medium, mean of two determinations", "result": "97992 ng per mg extract and 85282 ng per mg extract and 50339 ng per mg extract"}, {"measurement": "cis-Resveratrol, Root tissue", "setting": "[4]; elicited cultures, extract of root tissue, mean of two determinations", "result": 10, "unit": "ng per mg extract"}, {"measurement": "production rate of trans-resveratrol per gram DW of root tissue", "setting": "[4]; estimating 6 mg medium ethyl acetate extract per gram root tissue DW", "result": "300 to 588", "unit": "µg"}, {"measurement": "share of total trans-resveratrol secreted into the culture medium", "setting": "[4]; sodium acetate elicitation", "result": "approximately 99%"}, {"measurement": "fluorescent compounds induced in culture medium (TLC, UV 365 nm)", "setting": "[1]", "result": "induced production of blue fluorescent compounds"}, {"measurement": "fluorescent products induced in culture medium (TLC)", "setting": "[1]", "result": "induced two products"}, {"measurement": "presence of resveratrol in culture medium, time course", "setting": "[1]; [7]", "result": "decreased"}, {"measurement": "pterostilbene levels in culture medium, time course", "setting": "[1]; [7]", "result": "increased"}, {"measurement": "trans-resveratrol and pterostilbene levels in culture medium, time course", "setting": "[1]; line 2, 15-day culture, 72 hours post elicitation", "result": "decreased"}, {"measurement": "sodium acetate concentration with the most effective response (dose response, HPTLC)", "setting": "[1]; line 2, 24 hours, 0 to 51 mM tested", "result": "about 10 mM"}, {"measurement": "color change of the root tissue and medium", "setting": "[1]", "result": "did not affect the color of the roots"}, {"measurement": "induced compound by reverse phase HPLC", "setting": "[5]; 24 and 48 hours after elicitation", "result": "induced production of a major fluorescence compound"}, {"measurement": "production and secretion of stilbene-like fluorescent compounds (HPTLC)", "setting": "[5]; lines 3NB, 4NB, 5NB, 6NB, 10.2 mM sodium acetate, 24 or 48 hours", "result": "induced production and secretion of compounds with fluorescent characteristics of stilbene compounds"}, {"measurement": "elicitation of resveratrol and derivatives (HPTLC)", "setting": "[6]", "result": "achieved"}]}, {"compound": "cellulase", "values": [{"measurement": "fluorescent products induced in culture medium (TLC)", "setting": "[1]", "result": "no fluorescent chemicals were detected"}]}, {"compound": "chitosan", "values": [{"measurement": "fluorescent products induced in culture medium (TLC)", "setting": "[1]", "result": "induced the two products as observed for sodium acetate elicitation"}]}, {"compound": "laminarin", "values": [{"measurement": "fluorescent products induced in culture medium (TLC)", "setting": "[1]", "result": "induced production of a blue fluorescent chemical with an Rf 0.78"}]}]}
